# Measured values reported in PubChem BioAssay AID276 (DTP/NCI, 2004).
# Several values for one entry are separate records, joined by “and”; a condition that tells them apart may be missing. Identical values can stand only once. Inconclusive results and toxic doses are left out.
# Test system: B6C3F1 mice, Lewis lung carcinoma iv, survival T/C
# Experiment: NCI In Vivo Anticancer Drug Screen. Data for tumor model Lewis Lung Carcinoma (intravenous) in B6C3F1 mice
# Details: endpoint: median survival time, schedule: Q01DX009 (ip), higher = longer survival
# Method in brief: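 Antitumor activity is assessed in tumor-bearing mice by comparing survival after compound treatment against vehicle-treated controls, reported as a T/C ratio.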
# [1] = dose: 25.0 mg/kg/injection, vehicle: saline
# [2] = dose: 50.0 mg/kg/injection, vehicle: saline
# [3] = dose: 100.0 mg/kg/injection, vehicle: saline
# [4] = dose: 200.0 mg/kg/injection, vehicle: saline
# [5] = dose: 0.18 mg/kg/injection, vehicle: saline
# [6] = dose: 0.37 mg/kg/injection, vehicle: saline
# [7] = dose: 0.75 mg/kg/injection, vehicle: saline
# [8] = dose: 1.5 mg/kg/injection, vehicle: saline
# [9] = dose: 3.0 mg/kg/injection, vehicle: saline
# [10] = dose: 1.56 mg/kg/injection, vehicle: saline with Tween-80
# [11] = dose: 6.25 mg/kg/injection, vehicle: saline with Tween-80
# [12] = dose: 12.5 mg/kg/injection, vehicle: saline with Tween-80
# [13] = dose: 25.0 mg/kg/injection, vehicle: saline with Tween-80
# [14] = dose: 50.0 mg/kg/injection, vehicle: saline with Tween-80
# [15] = dose: 100.0 mg/kg/injection, vehicle: saline with Tween-80
# [16] = dose: 200.0 mg/kg/injection, vehicle: saline with Tween-80
# [17] = dose: 400.0 mg/kg/injection, vehicle: saline with Tween-80
structure (smiles),measurement,setting,value
CCCCCC[C@@H](O)C/C=C\CCCCCCCC(=O)OCCO,T/C,[1],91 % of control
same,T/C,[2],100 % of control
same,T/C,[3],99 % of control
same,T/C,[4],101 % of control
same,T/C,"dose: 400.0 mg/kg/injection, vehicle: saline",99 % of control
same,T/C,"dose: 800.0 mg/kg/injection, vehicle: saline",100 % of control
c1ccc([P+](c2ccccc2)(c2ccccc2)c2ccccc2)cc1,T/C,"dose: 0.09 mg/kg/injection, vehicle: saline",112 % of control
same,T/C,[5],112 % of control
same,T/C,[6],107 % of control
same,T/C,[7],105 % of control and 112 % of control
same,T/C,[8],103 % of control and 111 % of control
same,T/C,[9],95 % of control and 124 % of control
same,T/C,"dose: 6.0 mg/kg/injection, vehicle: saline",94 % of control
[N-]=[N+]=CC(=O)CCC(=O)C=[N+]=[N-],T/C,"dose: 0.39 mg/kg/injection, vehicle: DMSO",92 % of control
same,T/C,"dose: 0.78 mg/kg/injection, vehicle: DMSO",95 % of control
same,T/C,"dose: 1.5 mg/kg/injection, vehicle: DMSO",121 % of control
same,T/C,"dose: 3.0 mg/kg/injection, vehicle: DMSO",112 % of control
same,T/C,"dose: 6.0 mg/kg/injection, vehicle: DMSO",115 % of control
same,T/C,"dose: 25.0 mg/kg/injection, vehicle: DMSO",108 % of control
CCCCCCCCCCCCN1C(C)=CS/C1=C\C=C\c1scc(C)[n+]1CCCCCCCCCCCC,T/C,[10],90 % of control
Cc1c(-c2ccc(C3CCCCC3)cc2)nc2ccc(F)cc2c1C(=O)O,T/C,"dose: 25.0 mg/kg/injection, vehicle: Klucel (hydroxypropylcellulose) (HPC)",96 % of control
same,T/C,"dose: 50.0 mg/kg/injection, vehicle: Klucel (hydroxypropylcellulose) (HPC)",110 % of control
same,T/C,"dose: 100.0 mg/kg/injection, vehicle: Klucel (hydroxypropylcellulose) (HPC)",118 % of control
same,T/C,"dose: 200.0 mg/kg/injection, vehicle: Klucel (hydroxypropylcellulose) (HPC)",112 % of control
C=C(C)C(=NC(C)(C)C)Nc1ccccc1,T/C,[11],99 % of control
same,T/C,[12],99 % of control
same,T/C,[13],90 % of control
same,T/C,[14],86 % of control
same,T/C,[15],99 % of control
same,T/C,[16],90 % of control
Cc1cc2c(C(C)C)c(O)c(O)c(C=O)c2c(O)c1-c1c(C)cc2c(C(C)C)c(O)c(O)c(C=O)c2c1O,T/C,"dose: 0.37 mg/kg/injection, vehicle: saline with Tween-80",101 % of control
same,T/C,"dose: 0.75 mg/kg/injection, vehicle: saline with Tween-80",101 % of control
same,T/C,"dose: 1.5 mg/kg/injection, vehicle: saline with Tween-80",105 % of control
same,T/C,"dose: 3.0 mg/kg/injection, vehicle: saline with Tween-80",106 % of control
CN(C)[C@@H]1C(=O)C(C(N)=O)=C(O)[C@@]2(O)C(=O)C3=C(O)c4c(O)ccc(Cl)c4[C@@](C)(O)[C@H]3C[C@@H]12,T/C,"dose: 12.5 mg/kg/injection, vehicle: saline",100 % of control
same,T/C,[1],100 % of control
same,T/C,[2],109 % of control
same,T/C,[3],113 % of control
same,T/C,[4],101 % of control
O=C1c2ccccc2C(=O)c2c(NCCNCCO)ccc(O)c21,T/C,"dose: 2.5 mg/kg/injection, vehicle: saline",104 % of control
same,T/C,"dose: 5.0 mg/kg/injection, vehicle: saline",116 % of control
same,T/C,"dose: 10.0 mg/kg/injection, vehicle: saline",96 % of control
same,T/C,"dose: 20.0 mg/kg/injection, vehicle: saline",104 % of control
same,T/C,"dose: 40.0 mg/kg/injection, vehicle: saline",117 % of control
same,T/C,"dose: 80.0 mg/kg/injection, vehicle: saline",117 % of control
CC[C@@]1(O)C(=O)OCc2c1cc1n(c2=O)Cc2cc3cc(O)ccc3nc2-1,T/C,[5],106 % of control
same,T/C,[6],104 % of control
same,T/C,[7],102 % of control
same,T/C,[8],103 % of control
same,T/C,[9],110 % of control
O=C(Nc1ccccc1C(=O)O)c1cc([N+](=O)[O-])cc([N+](=O)[O-])c1,T/C,[12],96 % of control
same,T/C,[13],91 % of control
same,T/C,[14],102 % of control
same,T/C,[15],102 % of control
same,T/C,[16],95 % of control
NC(=O)/C=C/C(=O)c1c(Cl)cccc1Cl,T/C,"dose: 0.79 mg/kg/injection, vehicle: saline with Tween-80",111 % of control
same,T/C,[10],88 % of control
same,T/C,"dose: 3.12 mg/kg/injection, vehicle: saline with Tween-80",117 % of control
same,T/C,[11],103 % of control
same,T/C,[12],108 % of control
COc1cc([C@@H]2c3cc4c(cc3[C@@H](OC3OC5COC(C)OC5C(O)C3O)[C@H]3COC(=O)[C@H]23)OCO4)cc(OC)c1O (stereo not given in full),T/C,"dose: 0.5 mg/kg/injection, vehicle: Klucel (hydroxypropylcellulose) (HPC)",101 % of control
same,T/C,"dose: 1.0 mg/kg/injection, vehicle: Klucel (hydroxypropylcellulose) (HPC)",102 % of control
same,T/C,"dose: 2.0 mg/kg/injection, vehicle: Klucel (hydroxypropylcellulose) (HPC)",113 % of control
same,T/C,"dose: 2.0 mg/kg/injection, vehicle: suspension in saline",113 % of control and 121 % of control
same,T/C,"dose: 4.0 mg/kg/injection, vehicle: Klucel (hydroxypropylcellulose) (HPC)",124 % of control
same,T/C,"dose: 4.0 mg/kg/injection, vehicle: suspension in saline",109 % of control
same,T/C,"dose: 8.0 mg/kg/injection, vehicle: suspension in saline",151 % of control
same,T/C,"dose: 16.0 mg/kg/injection, vehicle: suspension in saline",166 % of control and 252 % of control
N#CCCSC(=S)C1CCCC1=N (stereo not given),T/C,[12],99 % of control
same,T/C,[13],103 % of control
same,T/C,[14],98 % of control
same,T/C,[15],103 % of control
same,T/C,[16],105 % of control
same,T/C,[17],106 % of control
C/C=C/C=C1/OC(C)=C(C(C)=O)C1=O,T/C,[12],123 % of control
same,T/C,[13],108 % of control
same,T/C,[14],93 % of control
same,T/C,[15],103 % of control
c1csc(C[N+]23CN4CN(CN(C4)C2)C3)c1,T/C,"dose: 12.0 mg/kg/injection, vehicle: saline",100 % of control
same,T/C,[1],101 % of control
same,T/C,[2],96 % of control
same,T/C,[3],96 % of control
same,T/C,[4],110 % of control
Cc1ccc2nc(-c3ccc4nc(-c5ccc(N=Nc6ccc(-c7nc8ccc(-c9nc%10ccc(C)c(S(=O)(=O)O)c%10s9)cc8s7)cc6)cc5)sc4c3)sc2c1S(=O)(=O)O,T/C,"dose: 12.5 mg/kg/injection, vehicle: suspension in saline",95 % of control
same,T/C,"dose: 25.0 mg/kg/injection, vehicle: suspension in saline",98 % of control
same,T/C,"dose: 50.0 mg/kg/injection, vehicle: suspension in saline",107 % of control
same,T/C,"dose: 100.0 mg/kg/injection, vehicle: suspension in saline",107 % of control
CC(=O)Oc1[nH]c(=O)c2cccc3c2c1CCC3,T/C,[13],104 % of control
same,T/C,[14],122 % of control
same,T/C,[15],102 % of control
same,T/C,[16],107 % of control
same,T/C,[17],105 % of control
COc1cc(Cl)ccc1C,T/C,[12],102 % of control
same,T/C,[13],98 % of control
same,T/C,[14],100 % of control
same,T/C,[15],97 % of control
same,T/C,[16],97 % of control
CO[C@@]12[C@@H]3N[C@@H]3CN1C1=C(C(=O)C(NCC3CCCO3)=C(C)C1=O)[C@@H]2COC(N)=O (stereo not given in full),T/C,"dose: 1.5 mg/kg/injection, vehicle: distilled water + Tween-80",104 % of control
same,T/C,"dose: 3.0 mg/kg/injection, vehicle: distilled water + Tween-80",104 % of control
same,T/C,"dose: 6.0 mg/kg/injection, vehicle: distilled water + Tween-80",116 % of control
